Reference: patent US20250320194A1, “PHARMACEUTICALLY ACCEPTABLE SALT AND CRYSTAL FORM OF FUSED PYRIDINE RING DERIVATIVE AND PREPARATION METHOD THEREFOR” (Jiangsu Hengrui Pharmaceuticals Co., Ltd., priority 2021, published 2025)

What was measured:
[1] = Stability under influencing factors (high temperature, high humidity, open, 30 days)
[2] = Hygroscopicity of salt crystal forms (DVS, 25° C.); format: physicochemical; details: for Hygroscopicity 0.0% RH-95.0% RH / Hygroscopicity 20.0% RH-80.0% RH: DVS, 25° C.; for Crystal form: after DVS
Procedure: The test adopts SMS DVS Advantage, at 25° C., with a humidity range of 0 to 95% and a step of 10%. The judgment standard is that the dM/dT of each gradient mass change is less than 0.002%, TMAX is 360 minutes, and the cycle is two times. • 5. Cation chromatography • Instrument model: DIONEX AQUION ion chromatograph, USA • Detection method: conductivity; separation column: IonPac CS16-CG16 • Eluent: MSA 20Mm • Flow rate: 1.0 ml/min • 6. Anion chromatography • Instrument model: DIONEX INTEGRION HPIC ion chromatograph, USA • Detection method: conductivity; separation column: DionexIonPac™-AS11-HC • Eluent: EGC-500-KOH • Flow rate: 1.5 ml/min
Using Surface Measurement Systems advantage, at 25° C., the humidity starts from 50%, the humidity range is 0% to 95%, the step is 10%. The judgment standard was that the dM/dT of each gradient mass change is less than 0.002%, TMAX360 min, and the cycle was two times. The hygroscopicity of different salt crystal forms of the compound of formula I was investigated respectively.

[3] = Long-term/accelerated stability

Q: Which results are given for `CC(C)(C#Cc1nc(C(Cc2cc(F)cc(F)c2)NC(=O)Cn2nc(C(F)(F)F)c3c2C(F)(F)C2CC32)c(-c2ccc(Cl)c3c([N-]S(C)(=O)=O)nn(CC(F)(F)F)c23)c2c1CCC2)S(C)(=O)=O.C[N+](C)(C)CCO` (stereo not shown) [Crystal form B of the choline salt]?
A: Color, properties ([1]; 40° C., 5 days): White solid; Crystal form ([1]; 40° C., 5 days): Unchanged; Purity % ([1]; 40° C., 5 days): 98.34%; Color, properties ([1]; 40° C., 10 days): White solid; Crystal form ([1]; 40° C., 10 days): Unchanged; Purity % ([1]; 40° C., 10 days): 98.33%; Color, properties ([1]; 40° C., 30 days): White solid; Crystal form ([1]; 40° C., 30 days): Unchanged; Purity % ([1]; 40° C., 30 days): 98.35%; Color, properties ([1]; 60° C., 5 days): White solid; Crystal form ([1]; 60° C., 5 days): Unchanged; Purity % ([1]; 60° C., 5 days): 98.39%; Color, properties ([1]; 60° C., 10 days): White solid; Crystal form ([1]; 60° C., 10 days): Unchanged; Purity % ([1]; 60° C., 10 days): 98.36%; Color, properties ([1]; 60° C., 30 days): White solid; Crystal form ([1]; 60° C., 30 days): Unchanged; Purity % ([1]; 60° C., 30 days): 98.36%; Color, properties ([1]; 75% RH, 5 days): White solid; Crystal form ([1]; 75% RH, 5 days): Unchanged; Purity % ([1]; 75% RH, 5 days): 98.35%; Color, properties ([1]; 75% RH, 10 days): White solid; Crystal form ([1]; 75% RH, 10 days): Unchanged; Purity % ([1]; 75% RH, 10 days): 98.35%; Color, properties ([1]; 75% RH, 30 days): White solid; Crystal form ([1]; 75% RH, 30 days): Unchanged; Purity % ([1]; 75% RH, 30 days): 98.36%; Color, properties ([1]; 92.5% RH, 5 days): White solid; Crystal form ([1]; 92.5% RH, 5 days): Unchanged; Purity % ([1]; 92.5% RH, 5 days): 98.45%; Color, properties ([1]; 92.5% RH, 10 days): White solid; Crystal form ([1]; 92.5% RH, 10 days): Unchanged; Purity % ([1]; 92.5% RH, 10 days): 98.34%; Color, properties ([1]; 92.5% RH, 30 days): White solid; Crystal form ([1]; 92.5% RH, 30 days): Unchanged; Purity % ([1]; 92.5% RH, 30 days): 98.35%; Color, properties ([1]; Start, 0 days): White solid; Purity % ([1]; Start, 0 days): 98.34%; Hygroscopicity 0.0% RH-95.0% RH [2]: 9.92%; Hygroscopicity 20.0% RH-80.0% RH [2]: 5.96%; Crystal form [2]: Unchanged

Q: Which Crystal form ([3]; 40° C., 75% RH) does the source give for `CC(C)(C#Cc1nc(C(Cc2cc(F)cc(F)c2)NC(=O)Cn2nc(C(F)(F)F)c3c2C(F)(F)C2CC32)c(-c2ccc(Cl)c3c([N-]S(C)(=O)=O)nn(CC(F)(F)F)c23)c2c1CCC2)S(C)(=O)=O.[K+]` (stereo not shown) [Crystal form a of the potassium salt] here?
A: The Crystal form was “Deliquesce”.

Q: And the “physical and chemical stability (conclusion)” value ([3]; long-term accelerated stability conditions for 6 months)?
A: Its value is “good physical and chemical stability”.

Q: And the “physical and chemical stability (conclusion)” value ([1]; 40° C., 60° C., 75% RH and 92.5% RH)?
A: The value was “good physical and chemical stability”.

Q: What about the “Color, properties” value ([1]; 40° C., 5 days) of the same molecule?
A: Its value is “White solid”.

Q: What about the Crystal form ([1]; 40° C., 5 days) of the same molecule?
A: Its Crystal form is “Unchanged”.

Q: What about the Purity % ([1]; 40° C., 5 days) of the same molecule?
A: The Purity % was 97.97%.

Q: What about the “Color, properties” value ([1]; 40° C., 10 days) of the same molecule?
A: Its value is “White solid”.

Q: And the Crystal form ([1]; 40° C., 10 days)?
A: Its Crystal form is “Unchanged”.

Q: And the Purity % ([1]; 40° C., 10 days)?
A: Its Purity % is 98.04%.

Q: And the “Color, properties” value ([1]; 40° C., 30 days)?
A: Its value is “White solid”.

Q: What about the Crystal form ([1]; 40° C., 30 days) of the same molecule?
A: Its Crystal form is “Unchanged”.

Q: What about the Purity % ([1]; 40° C., 30 days) of the same molecule?
A: Its Purity % is 97.96%.

Q: And the “Color, properties” value ([1]; 60° C., 5 days)?
A: Its value is “White solid”.

Q: What about the Crystal form ([1]; 60° C., 5 days) of the same molecule?
A: The Crystal form was “Unchanged”.

Q: What about the Purity % ([1]; 60° C., 5 days) of the same molecule?
A: The Purity % was 98.01%.

Q: And the “Color, properties” value ([1]; 60° C., 10 days)?
A: Its value is “White solid”.

Q: What about the Crystal form ([1]; 60° C., 10 days) of the same molecule?
A: The Crystal form was “Unchanged”.

Q: And the Purity % ([1]; 60° C., 10 days)?
A: Its Purity % is 98.01%.

Q: What about the “Color, properties” value ([1]; 60° C., 30 days) of the same molecule?
A: Its value is “White solid”.

Q: What about the Crystal form ([1]; 60° C., 30 days) of the same molecule?
A: The Crystal form was “Unchanged”.

Q: And the Purity % ([1]; 60° C., 30 days)?
A: The Purity % was 97.82%.

Q: And the “Color, properties” value ([1]; 75% RH, 5 days)?
A: Its value is “White solid”.

Q: What about the Crystal form ([1]; 75% RH, 5 days) of the same molecule?
A: The Crystal form was “Unchanged”.

Q: And the Purity % ([1]; 75% RH, 5 days)?
A: Its Purity % is 97.96%.

Q: And the “Color, properties” value ([1]; 75% RH, 10 days)?
A: Its value is “White solid”.

Q: And the Crystal form ([1]; 75% RH, 10 days)?
A: The Crystal form was “Unchanged”.

Q: What about the Purity % ([1]; 75% RH, 10 days) of the same molecule?
A: The Purity % was 98.04%.

Q: And the “Color, properties” value ([1]; 75% RH, 30 days)?
A: Its value is “White solid”.

Q: And the Crystal form ([1]; 75% RH, 30 days)?
A: The Crystal form was “Unchanged”.

Q: And the Purity % ([1]; 75% RH, 30 days)?
A: Its Purity % is 98.02%.

Q: And the “Color, properties” value ([1]; 92.5% RH, 5 days)?
A: The value was “White solid”.

Q: And the Crystal form ([1]; 92.5% RH, 5 days)?
A: The Crystal form was “Unchanged”.

Q: What about the Purity % ([1]; 92.5% RH, 5 days) of the same molecule?
A: Its Purity % is 97.96%.

Q: And the “Color, properties” value ([1]; 92.5% RH, 10 days)?
A: The value was “White solid”.

Q: And the Crystal form ([1]; 92.5% RH, 10 days)?
A: Its Crystal form is “Unchanged”.

Q: And the Purity % ([1]; 92.5% RH, 10 days)?
A: Its Purity % is 98.04%.

Q: And the “Color, properties” value ([1]; 92.5% RH, 30 days)?
A: The value was “White solid”.

Q: And the Crystal form ([1]; 92.5% RH, 30 days)?
A: The Crystal form was “Unchanged”.

Q: What about the Purity % ([1]; 92.5% RH, 30 days) of the same molecule?
A: Its Purity % is 98.02%.

Q: What about the “Color, properties” value ([1]; Start, 0 days) of the same molecule?
A: Its value is “White solid”.

Q: And the Purity % ([1]; Start, 0 days)?
A: The Purity % was 98.03%.

Q: And the “Hygroscopicity 0.0% RH-95.0% RH” value [2]?
A: Its value is 8.77%.

Q: And the “Hygroscopicity 20.0% RH-80.0% RH” value [2]?
A: Its value is 2.86%.

Q: And the Crystal form [2]?
A: The Crystal form was “Unchanged”.
